Where two headings read alike, the source gives them in different places.
What was measured:
human GPER = tested on: human GPER; parameters: method as in Thomas and Dong 2006; details: ref Thomas and Dong 2006; cited from earlier work
GPER [1] = molecular target: T1, GPER (Homo sapiens, UniProt Q99527); assay: cell-based
GPER [2] = molecular target: T1, GPER; assay: SKBR3 cell-based fluorescence competitive binding assay (E2-F probe, flow cytometry)
[3] = tested on: GPER-mediated signaling in SKBR3 cells; assay: Calcium mobilization assay in SKBR3 cells; format: cell-based, human; details: for significant dose-dependent increase in calcium mobilization compared to control: SKBR3 cells; for LOECs, activation of GPER signaling pathways: abstract summary over calcium mobilization and cAMP accumulation in SKBR3 cells
[4] = tested on: GPER-mediated signaling in SKBR3 cells; assay: cAMP assay in SKBR3 cells; format: cell-based, human; details: for significant dose-dependent increase in cAMP production compared to control / LOEC, cAMP production: SKBR3 cells; for LOEC, cAMP production: 30 min treatment
Experimental: SKBR3 cells ( 2×10^4 cells) were seeded in 96-well microplates which were precoated with a capture antibody for the cAMP-antibody complex (Invitrogen). […].

ERα = tested on: ERα; parameters: method as in Li et al. 2013; details: ref Li et al. 2013; cited from earlier work
SKBR3 cells [5] = assay: Boyden chamber cell migration assay; format: cell-based, human; details: for LOEC, SKBR3 cell migration, Boyden chamber assay: 48 h
Experimental: SKBR3 cell migration was evaluated using Boyden chamber and wound-healing assays as described previously with slight modification ([Cao et al. 2017]). For the Boyden chamber assay, 24-well plates containing cell culture inserts with 8-μm pore size (Corning) were used. The cells ( 8×10^4 cells, 100μL ) were seeded in the upper chamber, and the lower chamber was supplied with 600μL phenol red–free RPMI 1640 with 10% FBS (Invitrogen). After 12 h, the cells were incubated with phenol red–free RPMI 1640 without FBS for another 12 h. […] After incubation for 48 h, the cells on the upper side of the insert membrane were removed with cotton swabs, and the cells on the lower surface of the membrane were fixed with methanol for 10 min and stained with 0.1% crystal violet (Sigma-Aldrich). Then, the cells were counted under an inverted microscope (ROCTEC) coupled to a camera (Canon), and six fields were randomly chosen per chamber. The relative cell migration was determined by comparing the average number of cells in the six fields of the treated chamber to those in the control chamber.

SKBR3 cells [6] = assay: Wound-healing cell migration assay; format: cell-based, human; details: for LOEC, SKBR3 cell migration, wound-healing assay: 48 h; for LOECs, promotion of SKBR3 cell migration via GPER pathways: abstract summary over Boyden chamber and wound-healing assays
Experimental: For the wound-healing assays, SKBR3 cells were seeded in 12-well microplates at a density of 2.5×10^5 cells/well, incubated first in phenol red–free RPMI 1640 with 10% FBS for 12 h and then in phenol red–free RPMI 1640 without FBS for another 12 h. The cell layer was wounded with a sterile 200-μL pipet tip and washed 3 times with phenol red–free RPMI 1640. […] The closure of the scratch was photographed using an inverted microscope (ROCTEC) coupled to a camera (Canon). The change in the scratch area was evaluated using Image-Pro Plus 6.0 (Media Cybernetics). The relative cell migration was calculated by comparing the change in the wound area in the treated wells with those in the control wells.

SH-SY5Y cells = tested on: SH-SY5Y cells; parameters: method as in Tian et al. 2016; details: activity inhibited by GPER antagonist G15; ref Tian et al. 2016; cited from earlier work
rats = details: exposure of pregnant rats, 1–10mg/kg, cited from earlier work
zebrafish GPER = tested on: zebrafish GPER; parameters: method as in Fitzgerald et al. 2015; details: ref Fitzgerald et al. 2015, cited from earlier work; for binding to zebrafish GPER at a single tested concentration: 1μM
[7] = ratio between IC50 of E2 and compounds, E2 = 100%
[8] = E2-treated SKBR3 cells, G15 pretreatment 2 h

T1 sequence (Q99527 whole entry): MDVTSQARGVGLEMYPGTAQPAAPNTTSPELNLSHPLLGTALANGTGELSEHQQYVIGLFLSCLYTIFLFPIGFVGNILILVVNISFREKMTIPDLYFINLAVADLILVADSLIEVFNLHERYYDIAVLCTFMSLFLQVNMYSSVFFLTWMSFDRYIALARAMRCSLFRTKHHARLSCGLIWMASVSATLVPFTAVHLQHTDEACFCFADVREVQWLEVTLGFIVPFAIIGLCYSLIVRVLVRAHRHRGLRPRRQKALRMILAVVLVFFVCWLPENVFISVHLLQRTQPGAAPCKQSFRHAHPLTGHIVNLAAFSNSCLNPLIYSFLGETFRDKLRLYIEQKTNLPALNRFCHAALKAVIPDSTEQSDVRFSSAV

## Clc1ccc(C(c2ccc(Cl)cc2)C(Cl)(Cl)Cl)cc1 [2,2-bis(p-chlorophenyl)-1,1,1-trichloroethane]
Human GPER
  RBA to human GPER compared to E2: 0.2–1.3%

## Clc1ccc(C(c2ccccc2Cl)C(Cl)Cl)cc1 (stereo not drawn) [2-(2-chlorophenyl)-2-(4-chlorophenyl)-1,1-dichloroethane]
Human GPER
  RBA to human GPER compared to E2: 0.2–1.3%

## Oc1ccccc1Oc1ccc(Br)cc1 [2ʹ-OH-BDE-003, 2'-hydroxy-4-monobromodiphenyl ether]
GPER [1]
  IC50: 20 µM
GPER [2]; [7]
  RBA (relative binding affinity): 1.3%

## Oc1c(Br)ccc(Oc2ccc(Br)cc2Br)c1Br [3-OH-BDE-047, 3-hydroxy-2,2',4,4'-tetrabromodiphenyl ether]
[3]
  significant dose-dependent increase in calcium mobilization compared to control: exceptions
GPER [2]
  IC50: 12 µM
  RBA (relative binding affinity): 2.2%
[4]
  significant dose-dependent increase in cAMP production compared to control: exceptions

## Oc1c(Br)cc(Br)c(Oc2ccc(Br)cc2Br)c1Br [3-OH-BDE-100, 3-hydroxy-2,2',4,4',6-pentabromodiphenyl ether]
GPER [1]
  IC50: 3.6 µM
[3]
  significant dose-dependent increase in calcium mobilization compared to control: exceptions
GPER [2]
  RBA (relative binding affinity): 7.2%
[4]
  significant dose-dependent increase in cAMP production compared to control: exceptions
ERα
  type of activity on ERα: antagonists

## Oc1cccc(Oc2ccc(Br)cc2Br)c1 [3ʹ-OH-BDE-007, 3'-hydroxy-2,4-dibromodiphenyl ether]
GPER [1]
  IC50: 2.6 µM
GPER [2]; [7]
  RBA (relative binding affinity): 10.0%

## Oc1cc(Oc2ccc(Br)cc2Br)ccc1Br [3ʹ-OH-BDE-028, 3'-hydroxy-2,4,4'-tribromodiphenyl ether]
GPER [1]
  IC50: 3 µM
GPER [2]; [7]
  RBA (relative binding affinity): 8.7%

## Oc1c(Br)cc(Br)c(Oc2cc(Br)c(Br)cc2Br)c1Br [3ʹ-OH-BDE-154, 3'-hydroxy-2,2',4,4',5,6'-hexabromodiphenyl ether]
GPER [1]
  IC50: 1.3 µM
SKBR3 cells [5]
  LOEC, SKBR3 cell migration, Boyden chamber assay: 100 nM
[3]
  LOECs, activation of GPER signaling pathways: 10 to 100 nM
SKBR3 cells [6]
  LOEC, SKBR3 cell migration, wound-healing assay: 100 nM
  LOECs, promotion of SKBR3 cell migration via GPER pathways: 0.1 to 1 µM
ERα
  type of activity on ERα: antagonists

## Oc1c(Br)c(Br)c(Oc2cc(Br)c(Br)cc2Br)c(Br)c1Br [4-OH-BDE-187, 4-hydroxy-2,2',3,4',5,5',6-heptabromodiphenyl ether]
GPER [1]
  IC50: 6.2 µM
GPER [2]; [7]
  RBA (relative binding affinity): 4.2%

## Oc1ccc(-c2cc(Cl)ccc2Cl)c(Cl)c1 [4-hydroxy-2,2ʹ,5ʹ-trichloro-biphenyl]
Human GPER
  RBA to human GPER compared to E2: 0.2–1.3%

## Oc1cc(Br)c(Oc2ccc(Br)cc2Br)cc1Br [4ʹ-OH-BDE-049, 4'-hydroxy-2,2',4,5'-tetrabromodiphenyl ether]
GPER [1]
  IC50: 2.8 µM
SKBR3 cells [5]; text: same LOECs as for the wound-healing assay
  LOEC, SKBR3 cell migration, Boyden chamber assay: 1000 nM
[3]
  LOECs, activation of GPER signaling pathways: 10 to 100 nM
GPER [2]; [7]
  RBA (relative binding affinity): 9.3%
SKBR3 cells [6]
  LOEC, SKBR3 cell migration, wound-healing assay: 1000 nM
  LOECs, promotion of SKBR3 cell migration via GPER pathways: 0.1 to 1 µM

## Oc1c(Br)c(Br)c(Oc2c(Br)cc(Br)c(Br)c2Br)c(Br)c1Br [4ʹ-OH-BDE-201, 4'-hydroxy-2,2',3,3',4,5',6,6'-octabromodiphenyl ether]
GPER [1]
  IC50: 5.3 µM
GPER [2]; [7]
  RBA (relative binding affinity): 4.9%

## Oc1cc(Oc2cc(Br)c(Br)cc2Br)c(Br)cc1Br [5ʹ-OH-BDE-099, 5'-hydroxy-2,2',4,4',5-pentabromodiphenyl ether]
GPER [1]
  IC50: 1.3 µM
SKBR3 cells [5]
  LOEC, SKBR3 cell migration, Boyden chamber assay: 100 nM
[3]
  LOECs, activation of GPER signaling pathways: 10 to 100 nM
SKBR3 cells [6]
  LOEC, SKBR3 cell migration, wound-healing assay: 100 nM
  LOECs, promotion of SKBR3 cell migration via GPER pathways: 0.1 to 1 µM
ERα
  type of activity on ERα: antagonists

## Oc1cc(Br)c(Br)c(Br)c1Oc1ccc(Br)cc1Br [6-OH-BDE-085, 6-hydroxy-2,2',3,4,4'-pentabromodiphenyl ether]
ERα
  type of activity on ERα: antagonists

## Oc1c(Br)c(Br)c(Br)c(Br)c1Oc1cc(Br)c(Br)cc1Br [6-OH-BDE-180, 6-hydroxy-2,2',3,4,4',5,5'-heptabromodiphenyl ether]
GPER [1]
  IC50: 4.8 µM
GPER [2]; [7]
  RBA (relative binding affinity): 5.4%

## Brc1ccc(Oc2ccc(Br)cc2Br)c(Br)c1 [BDE-047, 2,2',4,4'-tetrabromodiphenyl ether]
SH-SY5Y cells
  effect on migration of SH-SY5Y cells: stimulated the migration

## Brc1ccc(Oc2cc(Br)c(Br)cc2Br)c(Br)c1 [BDE-099, 2,2',4,4',5-pentabromodiphenyl ether]
rats; ref Ceccatelli et al. 2006
  estrogen target genes in the uterus of female offspring: changes in the regulation of estrogen target genes
rats; ref Lilienthal et al. 2006
  sex steroid levels in male and female offspring: decreases in sex steroid levels

## CC(C)(c1ccc(O)cc1)c1ccc(O)cc1 [BPA, bisphenol A]
Zebrafish GPER
  RBA to zebrafish GPER: 15.8%
Human GPER
  RBA to human GPER compared to E2: 2.8%

## C[C@]12CC[C@@H]3c4ccc(O)cc4CC[C@H]3[C@@H]1CC[C@@H]2O [E2, 17β-estradiol, reference compound]
SKBR3 cells [5]
  LOEC, SKBR3 cell migration, Boyden chamber assay: 1 nM
[4]
  LOEC, cAMP production: 1 nM
SKBR3 cells [6]
  LOEC, SKBR3 cell migration, wound-healing assay: 1 nM

## CC(=O)c1ccc2c(c1)C1C=CCC1C(c1cc3c(cc1Br)OCO3)N2 (stereo not drawn) [G1, reference compound]
SKBR3 cells [5]
  LOEC, SKBR3 cell migration, Boyden chamber assay: 1 nM
[4]
  LOEC, cAMP production: 1 nM
SKBR3 cells [6]
  LOEC, SKBR3 cell migration, wound-healing assay: 1 nM

## Brc1cc2c(cc1[C@@H]1Nc3ccccc3[C@@H]3C=CC[C@@H]31)OCO2 [G15, reference compound]
SKBR3 cells [5]; 1μM OH-PBDEs, 10μM G15
  cell migration after G15 pretreatment versus OH-PBDE alone, Boyden chamber: significantly less cell migration
[3]; [8]
  calcium mobilization after G15 pretreatment versus vehicle pretreatment: significantly lower
[4]; [8]
  cAMP production after G15 pretreatment versus vehicle pretreatment: significantly lower
SKBR3 cells [6]; 1μM OH-PBDEs, 10μM G15
  cell migration after G15 pretreatment versus OH-PBDE alone, wound-healing: significantly less cell migration

## O=c1c(-c2ccc(O)cc2)coc2cc(O)cc(O)c12 [genistein]
Human GPER
  RBA to human GPER compared to E2: 1.3–13.4%

## O=C1C2(Cl)C3(Cl)C4(Cl)C(Cl)(Cl)C5(Cl)C3(Cl)C1(Cl)C5(Cl)C24Cl (stereo not drawn) [kepone]
Human GPER
  RBA to human GPER compared to E2: 1.3–13.4%

## CC(C)(c1cc(Br)c(O)c(Br)c1)c1cc(Br)c(O)c(Br)c1 [tetrabromobisphenol A]
Zebrafish GPER
  binding to zebrafish GPER at a single tested concentration: effective binding

## CC(C)(c1cc(Cl)c(O)c(Cl)c1)c1cc(Cl)c(O)c(Cl)c1 [tetrachlorobisphenol A]
Zebrafish GPER
  binding to zebrafish GPER at a single tested concentration: effective binding

## nonylphenol
Human GPER
  RBA to human GPER compared to E2: 1.3–13.4%

— paper PMC6071991, “Hydroxylated Polybrominated Biphenyl Ethers Exert Estrogenic Effects via Non-Genomic G Protein–Coupled Estrogen Receptor Mediated Pathways” (Environmental Health Perspectives, 2018)
